Test results reported in PMC13245809 (Nature chemistry, 2026).

Columns and labels:
FABLE [1] = experiment: fluorescence titration, global single-site fit; format: binding, synthetic construct
FABLE [2] = experiment: fluorescence titration, single-site binding model; set-up: species or system synthetic construct

**Q.** With CN(C)c1ccc2c(C(F)(F)F)cc(=O)oc2c1 [Cou485, 7-(dimethylamino)-4-(trifluoromethyl)coumarin] as the compound, how does the Kd (FABLE [1]) read?
**A.** 27.8 ± 1 µM

**Q.** For CCN(CC)c1ccc2c(C(F)(F)F)cc(=O)oc2c1 [Cou481], which Kd (FABLE [2]) is on record?
**A.** 5.8 ± 0.7 µM

**Q.** Which Kd (FABLE [2]) does the source give for O=c1cc(C(F)(F)F)c2cc3c4c(c2o1)CCCN4CCC3 [Cou540a] here?
**A.** 2 ± 0.1 µM
